# How the values were obtained:
# [1] = target: T1, Melatonin receptor (Homo sapiens) (UniProt P48039+P49286); test: Binding affinity against ovine pars tuberalis melatonin receptor using 2-[125I]- melatonin radioligand binding assay; type: protein assay; conditions: Ovis aries; target entry is the homologue from another species
# [2] = target: Melatonin receptor; type: protein assay, Ovis aries
# [3] = target: T1, Melatonin receptor (Homo sapiens); test: Compound was evaluated for agonistic activity against cAMP production stimulated by forskolin; Potential stimulation; type: functional; conditions: Ovis aries; filed as agonist
SMILES,KH [1] [pM],KL [1] [nM],Ki [2] [nM],Activity [3]
CC(=O)NCCc1cccc2ccc3c(c12)CC(C)O3 (stereo not given),0.0069,1.2,,
CC(=O)NCCc1cccc2ccc3c(c12)C(=O)CO3,,,13.9,
CC(=O)NCCC1CCCc2ccc3c(c21)CCCO3 (stereo not given),,,6.17,Agonist
CC(=O)NCCc1cccc2ccc3c(c12)CCCO3,,,0.216,
CC(=O)NCCC1CCCc2cc3c(cc21)OCCO3 (stereo not given),,,62.2,Agonist
CC(=O)NCCc1cccc2ccc3c(c12)C=CCO3,,,0.137,
CC(=O)NCCc1cccc2ccc3c(c12)C(O)CO3 (stereo not given),,,130,
